Laboratory results reported in patent publication US20250255848A1, “SUBSTITUTED 6,7-DIHYDRO-5H-BENZO[7]ANNULENE DERIVATIVES, PROCESSES FOR THEIR PREPARATION AND THERAPEUTIC USES THEREOF” (SANOFI, priority 2022, published 2025).

Target: ERα (Homo sapiens (Human), UniProt P03372)
Assay: Estrogen receptor degradation activity: breast cancer cell ERα in cell western assay
Format: cell-based
Conditions: MCF7 cells; for % Degradation At 0.3 μM: 4 hours, normalised to fulvestrant 0.1 μM and DMSO; for IC50: 4 hours post compound addition, concentration which degrades 50% of the estrogen receptor
Method: Said test involves measuring the in vitro degradation activity of the compounds of the Table 1a.
The measurements of the degradation activities were made using a breast cancer cell ERα in cell western assay as described hereunder.
MCF7 cells (ATCC) were seeded in 384 wells microplate (collagen coated) at a concentration of 10000 cells/30 μL per well in red phenol free MEM alpha medium (invitrogen) containing 5% charcoal dextran striped FBS. The following day, 9 points serial 1:5 dilution of each compound was added to the cells in 2.5 μL at final concentrations ranging from 0.3-0.0000018 μM (in table 2), or 0.1 μM for fulvestrant (using as positive control). At 4 hours post compound addition the cells were fixed by adding 25 μL of formalin (final concentration 5% formalin containing 0.1% triton) for 10 minutes at room temperature and then washed twice with PBS. Then, 50 μL of LI-COR blocking buffer containing 0.1% Triton was added to plate for 30 minutes at room temperature. LI-COR blocking buffer was removed and cells were incubated overnight at cold room with 50 μL anti-ER rabbit monoclonal antibody (Thermo scientific MA1-39540) diluted at 1:1000 in LI-COR blocking buffer containing 0.1% tween-20. Wells which were treated with blocking buffer but no antibody were used as background control. Wells were washed twice with PBS (0.1% tween-20) and incubated at 37° C. for 60 minutes in LI-COR (0.1% tween-20) containing goat anti-rabbit antibody Alexa 488 (1:1000) and Syto-64 a DNA dye (2 μM final concentration). Cells were then washed 3 times in PBS and scanned in ACUMEN explorer (TTP-Labtech). Integrated intensities in the green fluorescence and red fluorescence were measured to determine the levels of ERα and DNA respectively.
The degradation activity with respect to estrogen receptors in this test is given by the concentration which degrades 50% of the estrogen receptor (or IC50) in nM.
The % of ERα levels decrease were determined as follows: % inhibition=100*(1−(sample−fulvestrant:DMSO−fulvestrant)).

Chain of ERα (P03372 whole entry): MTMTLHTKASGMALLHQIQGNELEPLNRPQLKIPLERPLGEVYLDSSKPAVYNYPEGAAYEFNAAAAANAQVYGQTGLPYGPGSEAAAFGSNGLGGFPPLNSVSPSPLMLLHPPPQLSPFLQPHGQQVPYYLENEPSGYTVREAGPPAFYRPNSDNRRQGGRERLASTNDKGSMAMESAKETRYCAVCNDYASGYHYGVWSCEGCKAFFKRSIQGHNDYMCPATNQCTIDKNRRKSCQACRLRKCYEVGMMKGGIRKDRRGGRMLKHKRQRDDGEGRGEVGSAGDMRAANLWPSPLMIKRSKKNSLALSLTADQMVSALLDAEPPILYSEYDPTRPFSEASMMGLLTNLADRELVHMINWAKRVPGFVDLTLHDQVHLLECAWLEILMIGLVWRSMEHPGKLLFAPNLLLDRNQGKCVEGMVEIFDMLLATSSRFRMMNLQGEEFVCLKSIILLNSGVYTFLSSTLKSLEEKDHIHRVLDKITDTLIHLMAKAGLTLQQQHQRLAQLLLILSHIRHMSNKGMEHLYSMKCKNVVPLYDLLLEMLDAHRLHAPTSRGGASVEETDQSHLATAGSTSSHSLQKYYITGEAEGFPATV

SMILES	% Degradation At 0.3 μM	IC50
Cc1c(Cl)cccc1C1=C(c2ccc(C=C3CN(CCC(F)F)C3)cc2)c2ccc(O)cc2CCC1 [Compound 42, 8-(3-chloro-2-methylphenyl)-9-(4-((1-(3,3-difluoropropyl)azetidin-3-ylidene)methyl)phenyl)-6,7-dihydro-5H-benzo[7]annulen-3-ol]	53%	6.4 nM
Cc1ccc(C2=C(c3ccc(C=C4CN(CCCF)C4)cc3)c3ccc(C(=O)O)cc3CCC2)c(C(F)F)c1 [Compound 43, 8-(2-(difluoromethyl)-4-methylphenyl)-9-(4-((1-(3-fluoropropyl)azetidin-3-ylidene)methyl)phenyl)-6,7-dihydro-5H-benzo[7]annulene-3-carboxylic acid]	91%	0.5 nM
Cc1cc(C(F)F)ccc1C1=C(c2ccc(C=C3CN(CCCF)C3)cc2)c2ccc(C(=O)O)cc2CCC1 [Compound 44, 8-(4-(difluoromethyl)-2-methylphenyl)-9-(4-((1-(3-fluoropropyl)azetidin-3-ylidene)methyl)phenyl)-6,7-dihydro-5H-benzo[7]annulene-3-carboxylic acid]	93%	0.5 nM
COc1ccc(C(F)F)c(C2=C(c3ccc(C=C4CN(CCCF)C4)cc3)c3ccc(C(=O)O)cc3CCC2)c1 [Compound 45, 8-(2-(difluoromethyl)-5-methoxyphenyl)-9-(4-((1-(3-fluoropropyl)azetidin-3-ylidene)methyl)phenyl)-6,7-dihydro-5H-benzo[7]annulene-3-carboxylic acid]	93%	0.6 nM
CCc1c(Cl)cccc1C1=C(c2ccc(C=C3CN(CCCF)C3)cc2)c2ccc(C(=O)O)cc2CCC1 [Compound 46, 8-(3-chloro-2-ethylphenyl)-9-(4-((1-(3-fluoropropyl)azetidin-3-ylidene)methyl)phenyl)-6,7-dihydro-5H-benzo[7]annulene-3-carboxylic acid]	91%	0.5 nM
COc1ccc(C(F)(F)F)c(C2=C(c3ccc(C=C4CN(CCCF)C4)cc3)c3ccc(C(=O)O)cc3CCC2)c1 [Compound 47, 9-(4-((1-(3-fluoropropyl)azetidin-3-ylidene)methyl)phenyl)-8-(5-methoxy-2-(trifluoromethyl)phenyl)-6,7-dihydro-5H-benzo[7]annulene-3-carboxylic acid]	93%	0.5 nM
O=C(O)c1ccc2c(c1)CCCC(c1ccc(C(F)(F)F)cc1C1CC1)=C2c1ccc(C=C2CN(CCCF)C2)cc1 [Compound 48, 8-(2-cyclopropyl-4-(trifluoromethyl)phenyl)-9-(4-((1-(3-fluoropropyl)azetidin-3-ylidene)methyl)phenyl)-6,7-dihydro-5H-benzo[7]annulene-3-carboxylic acid]	94%	0.9 nM
COc1c(Cl)cccc1C1=C(c2ccc(C=C3CN(CCCF)C3)cc2)c2ccc(C(=O)O)cc2CCC1 [Compound 49, 8-(3-chloro-2-methoxyphenyl)-9-(4-((1-(3-fluoropropyl)azetidin-3-ylidene)methyl)phenyl)-6,7-dihydro-5H-benzo[7]annulene-3-carboxylic acid]	93%	0.5 nM
COc1cc(C2=C(c3ccc(C=C4CN(CCCF)C4)cc3)c3ccc(C(=O)O)cc3CCC2)ccc1C(F)(F)F [Compound 50, 9-(4-((1-(3-fluoropropyl)azetidin-3-ylidene)methyl)phenyl)-8-(3-methoxy-4-(trifluoromethyl)phenyl)-6,7-dihydro-5H-benzo[7]annulene-3-carboxylic acid]	92%	8.5 nM
O=C(O)c1ccc2c(c1)CCCC(c1ccc(C(F)F)cc1C(F)(F)F)=C2c1ccc(C=C2CN(CCCF)C2)cc1 [Compound 51, 8-(4-(difluoromethyl)-2-(trifluoromethyl)phenyl)-9-(4-((1-(3-fluoropropyl)azetidin-3-ylidene)methyl)phenyl)-6,7-dihydro-5H-benzo[7]annulene-3-carboxylic acid]	92%	0.5 nM
COc1cccc(C2=C(c3ccc(C=C4CN(CCCF)C4)cc3)c3ccc(C(=O)O)cc3CCC2)c1C(F)(F)F [Compound 52, 9-(4-((1-(3-fluoropropyl)azetidin-3-ylidene)methyl)phenyl)-8-(3-methoxy-2-(trifluoromethyl)phenyl)-6,7-dihydro-5H-benzo[7]annulene-3-carboxylic acid]	94%	0.4 nM
Cc1cc(C2=C(c3ccc(C=C4CN(CCCF)C4)cc3)c3ccc(C(=O)O)cc3CCC2)ccc1C(F)(F)F [Compound 53, 9-(4-((1-(3-fluoropropyl)azetidin-3-ylidene)methyl)phenyl)-8-(3-methyl-4-(trifluoromethyl)phenyl)-6,7-dihydro-5H-benzo[7]annulene-3-carboxylic acid]	91%	1.2 nM
O=C(O)c1ccc2c(c1)CCCC(c1ccc(C(F)F)cc1OC(F)(F)F)=C2c1ccc(C=C2CN(CCCF)C2)cc1 [Compound 54, 8-(4-(difluoromethyl)-2-(trifluoromethoxy)phenyl)-9-(4-((1-(3-fluoropropyl)azetidin-3-ylidene)methyl)phenyl)-6,7-dihydro-5H-benzo[7]annulene-3-carboxylic acid]	95%	0.5 nM
O=C(O)c1ccc2c(c1)CCCC(c1ccc(C(F)F)cc1)=C2c1ccc(C=C2CN(CCCF)C2)cc1 [Compound 55, 8-(4-(difluoromethyl)phenyl)-9-(4-((1-(3-fluoropropyl)azetidin-3-ylidene)methyl)phenyl)-6,7-dihydro-5H-benzo[7]annulene-3-carboxylic acid]	94%	0.6 nM

The next lines start with the values.

% Degradation At 0.3 μM	IC50	SMILES
92%	0.7 nM	C[C@H]1CC[C@H](C2=C(c3ccc(C=C4CN(CCCF)C4)cc3)c3ccc(C(=O)O)cc3CCC2)CC1 [Compound 56, 9-(4-((1-(3-fluoropropyl)azetidin-3-ylidene)methyl)phenyl)-8-(trans-4-methylcyclohexyl)-6,7-dihydro-5H-benzo[7]annulene-3-carboxylic acid]
93%	0.7 nM	Cc1ccc(C(F)F)c(C2=C(c3ccc(C=C4CN(CCCF)C4)cc3)c3ccc(C(=O)O)cc3CCC2)c1 [Compound 57, 8-(2-(difluoromethyl)-5-methylphenyl)-9-(4-((1-(3-fluoropropyl)azetidin-3-ylidene)methyl)phenyl)-6,7-dihydro-5H-benzo[7]annulene-3-carboxylic acid]
93%	0.2 nM	O=C(O)c1ccc2c(c1)CCCC(c1ccccc1C(F)F)=C2c1ccc(C=C2CN(CCCF)C2)cc1 [Compound 58, 8-(2-(difluoromethyl)phenyl)-9-(4-((1-(3-fluoropropyl)azetidin-3-ylidene)methyl)phenyl)-6,7-dihydro-5H-benzo[7]annulene-3-carboxylic acid]
92%	0.9 nM	COc1cc(C(F)(F)F)ccc1C1=C(c2ccc(C=C3CN(CCCF)C3)cc2)c2ccc(C(=O)O)cc2CCC1 [Compound 59, 9-(4-((1-(3-fluoropropyl)azetidin-3-ylidene)methyl)phenyl)-8-(2-methoxy-4-(trifluoromethyl)phenyl)-6,7-dihydro-5H-benzo[7]annulene-3-carboxylic acid]
93%	0.6 nM	COc1cccc(C2=C(c3ccc(C=C4CN(CCCF)C4)cc3)c3ccc(C(=O)O)cc3CCC2)c1C(F)F [Compound 60, 8-(2-(difluoromethyl)-3-methoxyphenyl)-9-(4-((1-(3-fluoropropyl)azetidin-3-ylidene)methyl)phenyl)-6,7-dihydro-5H-benzo[7]annulene-3-carboxylic acid]
91%	0.9 nM	C[C@H]1CC[C@@H](C2=C(c3ccc(C=C4CN(CCCF)C4)cc3)c3ccc(C(=O)O)cc3CCC2)CC1 [Compound 61, 9-(4-((1-(3-fluoropropyl)azetidin-3-ylidene)methyl)phenyl)-8-(cis-4-methylcyclohexyl)-6,7-dihydro-5H-benzo[7]annulene-3-carboxylic acid]
93%	0.5 nM	COc1ccc(C2=C(c3ccc(C=C4CN(CCCF)C4)cc3)c3ccc(C(=O)O)cc3CCC2)c(C(F)(F)F)c1 [Compound 62, 9-(4-((1-(3-fluoropropyl)azetidin-3-ylidene)methyl)phenyl)-8-(4-methoxy-2-(trifluoromethyl)phenyl)-6,7-dihydro-5H-benzo[7]annulene-3-carboxylic acid]
